This note sets out measurements from patent US12295936B2, “Immunomodulating urea azalides” (Zoetis Services LLC, priority 2020, dated 2025).

Bounds are passed on as bounds.

Test in all cases: LPS-stimulated whole bovine blood assay, MSD cytokine detection
Holding throughout (type): cell-based

One assay has as its system IL-6. Particulars: Bos taurus, LPS-stimulated bovine whole blood; read-out: IL-6 (IC50 μM). From the text: In order to correlate RNA sequencing data to cytokine changes the whole blood assay was utilized. […] The enhancement result represents an overall stimulation of cytokine levels due to cellular stress or potential toxicity with increasing concentrations of the compound, representing a typical bell shape response curve for immunomodulatory activity.

In the next assay the test system is IL-1β. Particulars: overstimulation of IL-1β, LPS-stimulated bovine whole blood.
The test system of another assay is TNF-α. Particulars: Bos taurus, LPS-stimulated bovine whole blood; read-out: TNF-α (IC50 μM).

In the case of `CC[C@H]1OC(=O)[C@H](C)[C@@H](O[C@H]2C[C@@](C)(OC)[C@](O)(CNCCN(C)C)[C@H](C)O2)[C@H](C)[C@@H](O[C@@H]2O[C@H](C)C[C@H](N(C)C(=O)N(C)c3ccccc3)[C@H]2O)[C@](C)(O)C[C@@H](C)CN[C@H](C)[C@@H](O)[C@]1(C)O` [Example H-20, 1-((2S,3R,4S,6R)-2-(((2R,3S,4R,5R,8R,10R,11R,12S,13S,14R)-13-(((2R,4R,5S,6S)-5-(((2-(dimethylamino)ethyl)amino)methyl)-5-hydroxy-4-methoxy-4,6-dimethyltetrahydro-2H-pyran-2-yl)oxy)-2-ethyl-3,4,10-trihydroxy-3,5,8,10,12,14-hexamethyl-15-oxo-1-oxa-6-azacyclopentadecan-11-yl)oxy)-3-hydroxy-6-methyltetrahydro-2H-pyran-4-yl)-1,3-dimethyl-3-phenylurea], the 50% inhibitory concentration (IC50) was over 500 µM in the assay with IL-6 and 31 µM in the assay on TNF-α. Moreover, the “IL-1β OS of LPS” value with IL-1β came to 6 µM.

As for `CCCN(C[C@]1(O)[C@H](C)O[C@@H](O[C@H]2[C@H](C)[C@@H](O[C@@H]3O[C@H](C)C[C@H](N(C)C(N)=O)[C@H]3O)[C@](C)(O)C[C@@H](C)CN[C@H](C)[C@@H](O)[C@](C)(O)[C@@H](CC)OC(=O)[C@@H]2C)C[C@@]1(C)OC)C(N)=O` [Example H-22, 1-((2S,3R,4S,6R)-2-(((2R,3S,4R,5R,8R,10R,11R,12S,13S,14R)-2-ethyl-3,4,10-trihydroxy-13-(((2R,4R,5S,6S)-5-hydroxy-4-methoxy-4,6-dimethyl-5-((1-propylureido)methyl)tetrahydro-2H-pyran-2-yl)oxy)-3,5,8,10,12,14-hexamethyl-15-oxo-1-oxa-6-azacyclopentadecan-11-yl)oxy)-3-hydroxy-6-methyltetrahydro-2H-pyran-4-yl)-1-methylurea], the 50% inhibitory concentration (IC50) with IL-6 and in the assay with TNF-α was over 500 µM throughout. Further, the “IL-1β OS of LPS” value in the assay with IL-1β is over 500 µM.

In the case of `CC[C@H]1OC(=O)[C@H](C)[C@@H](O[C@H]2C[C@@](C)(OC)[C@](O)(CNC)[C@H](C)O2)[C@H](C)[C@@H](O[C@@H]2O[C@H](C)C[C@H](N(C)C(=O)N(C)c3ccccc3)[C@H]2O)[C@](C)(O)C[C@@H](C)CN[C@H](C)[C@@H](O)[C@]1(C)O` [Example H-26, 1-((2S,3R,4S,6R)-2-(((2R,3S,4R,5R,8R,10R,11R,12S,13S,14R)-2-ethyl-3,4,10-trihydroxy-13-(((2R,4R,5S,6S)-5-hydroxy-4-methoxy-4,6-dimethyl-5-((methylamino)methyl)tetrahydro-2H-pyran-2-yl)oxy)-3,5,8,10,12,14-hexamethyl-15-oxo-1-oxa-6-azacyclopentadecan-11-yl)oxy)-3-hydroxy-6-methyltetrahydro-2H-pyran-4-yl)-1,3-dimethyl-3-phenylurea], the half-inhibitory concentration (IC50) with IL-6 was over 250 µM; in the assay with TNF-α, 30 µM. Moreover, in the assay on IL-1β, the “IL-1β OS of LPS” value came out at 250 µM.

Take `CC[C@H]1OC(=O)[C@H](C)[C@@H](O[C@H]2C[C@@](C)(OC)[C@](O)(CNCC3CCN(C)CC3)[C@H](C)O2)[C@H](C)[C@@H](O[C@@H]2O[C@H](C)C[C@H](N(C)C(=O)N(C)c3ccccc3)[C@H]2O)[C@](C)(O)C[C@@H](C)CN[C@H](C)[C@@H](O)[C@]1(C)O` [Example H-30, 1-((2S,3R,4S,6R)-2-(((2R,3S,4R,5R,8R,10R,11R,12S,13S,14R)-2-ethyl-3,4,10-trihydroxy-13-(((2R,4R,5S,6S)-5-hydroxy-4-methoxy-4,6-dimethyl-5-((((1-methylpiperidin-4-yl)methyl)amino)methyl)tetrahydro-2H-pyran-2-yl)oxy)-3,5,8,10,12,14-hexamethyl-15-oxo-1-oxa-6-azacyclopentadecan-11-yl)oxy)-3-hydroxy-6-methyltetrahydro-2H-pyran-4-yl)-1,3-dimethyl-3-phenylurea]: the figures for the IC50 in the assay with IL-6 and with TNF-α were over 250 µM and 250 µM, respectively. Moreover, in the assay with IL-1β, the “IL-1β OS of LPS” value amounted to 250 µM.

The IC50 is the concentration needed to halve the response being measured.
